How the values were obtained:
Type in all cases: in vivo, male Sprague-Dawley rats
[1] = Body weight of aged rats before and after 12 weeks of supplementation
tumours = test: Incidence of tumours after euthanasia in aged rats; details: after euthanasia at 12 weeks; NEAA vs CIT p<0.05
Protocol: (§1) Thirty-nine male Sprague-Dawley rats aged 20 months and free of tumours (Charles River, L'Arbresle, France) are used. They are raised individually in cages, at a temperature of 20-23° C., subjected to a cycle of 12 hours of light alternating with 12 hours of darkness. They have free access to water. For the acclimatization period, all the rats are fed a standard diet (59% carbohydrates, 3% lipids, 17% proteins and 21% fibres) ad libitum (UAR of 0.4 Dietex, Villemoisson-sur-Orge, France) for 2 weeks. The animals are cared for in accordance with French regulations on the protection of animals used for experimental and scientific purposes (D 2001-486) and with the Regulations of the European Community (Official Journal of the European Community, L538 12:18:1986).
(§2) After the acclimatization period, the rats are randomly divided into 2 groups.
(§3) In the “citrulline” group (CIT, n=19), the rats are fed ad libitum for 12 weeks with a citrulline-based supplement (1 g.kg^−1.day^−1 of citrulline) mixed with their standard diet. The dose of citrulline is calculated by extrapolation of the doses used in humans, taking into account the fact that the metabolic rate and nitrogen requirements are 10 times greater in rodents than those measured in humans and very close to the dose of arginine administered to rats for 12 weeks by Jobgen W. et al. (J Nutr 2009;139:230-7). […]

polyamines = test: Level of polyamines in liver, jejunum and ileum of aged rats
Protocol: as §1, §2
In the “citrulline” group (CIT, n=19), the rats are fed ad libitum for 12 weeks with a citrulline-based supplement (1 g.kg^−1.day^−1 of citrulline) mixed with their standard diet. The dose of citrulline is calculated by extrapolation of the doses used in humans, taking into account the fact that the metabolic rate and nitrogen requirements are 10 times greater in rodents than those measured in humans and very close to the dose of arginine administered to rats for 12 weeks by Jobgen W. et al. (J Nutr 2009;139:230-7). This dose corresponds to approximately 9% of the nitrogen intake, i.e. approximately 7g/day in the healthy adult volunteer.
In the “non-essential amino acids” group (NEAA, n=20), the rats are fed ad libitum for 12 weeks with a standard food rendered isonitrogenous with respect to the citrulline group by the addition of non-essential amino acids: […], serine, alanine and glycine in an equimolar ratio.
The rats are euthanized in the post-absorptive state after treatment for 12 weeks. The statistical studies are carried out using Statview® software

aged healthy rats = test: Mortality over 12 weeks in aged healthy rats fed supplemented diet; details: rats aged 20 months, supplemented diet ad libitum for 12 weeks; NEAA vs CIT p<0.05
Protocol: as §1, §2, §3

Compound: NC(=O)NCCCC(N)C(=O)O (stereo not drawn) [CIT, 2-amino-5-(carbamoylamino)pentanoic acid]
- effect of supplementation on body weight ([1]; 12 weeks, 1 g.kg^-1.day^-1 in the diet): does not affect the body weight
- Final body weight ([1]; after the 12-week supplementation, NEAA vs CIT N.S): 630 ± 13
- Initial body weight ([1]; before the 12-week supplementation, NEAA vs CIT N.S): 669 ± 16
- incidence of tumours (rats with tumours/rats assessed) (tumours): 0/19
- effect of supplementation on putrescine (polyamines; 12 weeks of supplementation): significant increase
- Ileum putrescine (polyamines; after 12 weeks, p 0.028): 79.8 ± 25
- Liver putrescine (polyamines; after 12 weeks, p 0.034): 17.1 ± 14.5
- Ileum spermidine (polyamines; after 12 weeks, p NS): 374 ± 70
- Ileum spermine (polyamines; after 12 weeks, p NS): 203 ± 43
- Jejunum putrescine (polyamines; after 12 weeks, p NS): 82.7 ± 36
- Jejunum spermidine (polyamines; after 12 weeks, p NS): 478 ± 200
- Jejunum spermine (polyamines; after 12 weeks, p NS): 297 ± 88
- Liver spermidine (polyamines; after 12 weeks, p NS): 372 ± 90
- Liver spermine (polyamines; after 12 weeks, p NS): 557 ± 245
- mortality over 12 weeks (dead rats/rats in group) (aged healthy rats): 0/19

— patent US20140018424A1, “PREVENTIVE EFFECT OF CITRULLINE ON THE SPONTANEOUS DEVELOPMENT OF TUMORS” (UNIVERSITE PARIS DESCARTES, priority 2011, published 2014)
